Experimental data: patent publication US7485416B2, “Screening methods for the identification of agents that inhibit SIRT1 Tat deacetylase activity” (The Regents of the University of California, priority 2003, dated 2009)

How the values were obtained:
[1] = system: HIV LTR luciferase; assay: Nuclear microinjection of synthetic Tat or AcTat with HIV LTR luciferase reporter into HeLa cells; format: cell-based; details: for basal HIV promoter activity / transcriptional activity of AcTat (transactivation of the HIV promoter): TSA 400 nM or nicotinamide 5 mM, four hours (FIG. 6C)
Procedure: Subconfluent MEFs (70%) were grown on Cellocate coverslips (Eppendorf, Westbury, N.Y.), and nuclear microinjections were performed at room temperature with an automated injection system (Eppendorf Micromanipulator 5171 together with Eppendorf Transjector 5246). Samples were prepared as a 20 μl injection mix containing the HIV LTR luciferase reporter or 5×UAS luciferase (each 100 ng/μl), RSV-Tat (10 ng/μl) or Gal4-VP16 (50 ng/μl), CMV-CyclinT1 (100 ng/μl), CMV-SIRT1 (100 or 300 ng/μl) together with CMV-GFP (50 ng/μl) in sterile water. Six hours after microinjection, cells were examined under a Nikon Eclipse TE300 inverted fluorescent microscope to determine the number of GFP-positive cells, washed in cold phosphate buffer, and stored at −70° C. for luciferase assays (Promega). In HeLa cells, synthetic Tat or AcTat proteins (each 30 or 100 ng/μl) were co-injected with the wildtype or mutant HIV LTR luciferase reporters (each 100 ng/μl) together with CMV-GFP (50 ng/μl) and harvested four hours after injection. Cells were treated immediately after injection with 5,6-dichlorobenzimidazole riboside (DRB; 10 or 50 μM; Sigma), TSA (400 nM), or nicotinamide (5 mM). Microinjections in siRNA-treated cells were performed 48 hours after siRNA transfection.

[2] = system: Tat-dependent HIV transcription; assay: Tat transactivation of HIV LTR luciferase reporter in transfected HeLa cells treated with HR73; format: cell-based; details: at ~1 μM, 8 hours, dose-dependent (FIG. 7C left)
Procedure: (§1) In co-transfection experiments, human CMV-SIRT1 or CMV-SIRT1H363Y (600 ng) was co-transfected into HeLa cells plated in six-well plates with the HIV LTR luciferase reporter (200 ng) or the LTRΔNF-kB-luciferase reporter (200 ng) and increasing amounts of RSV-Tat (0 ng, 2 ng, 20 ng, and 200 ng) using the lipofectamine reagents (Invitrogen). In the control experiment, RSV-Tat was replaced by RSV luciferase (200 ng), and the HIV LTR luciferase construct was replaced by the HIV LTR CAT reporter. […] The RSV-luciferase construct was used as described above. […] Cells were harvested 8 hr later and processed for luciferase assays.

[3] = system: p53; assay: p53 acetylation in cells; format: cell-based; details: 1 μM
[4] = system: HIV-R7/E-/GFP (HIVNL4-3 with GFP in place of nef); assay: Single-cycle HIV infection of Jurkat T cells, GFP expression by flow cytometry; format: cell-based; details: 1 μM, 36 hours (FIG. 7D left)
Procedure: (§2) The HIV molecular clone (HIV-R7/E^−/GFP) containing the GFP open reading frame in place of the nef gene and a frameshift mutation in the env gene as well as the method to generate pseudotyped viral particles with VSV-G was previously described. Jordan et al. (2003) Embo J 22: 1868-1877. The number of infective particles per ml was established by infecting 3×10^5 Jurkat cells with different amounts of viral suspension. The titer of the viral stock was measured by flow cytometry analysis of GFP expression 48 hours after infection. The pHR′-EF-1α/GFP construct is a minimal nonreplicative HIV-1 genome containing a heterologous promoter (EF-1α) driving GFP expression. Naldini et al. (1996) Science 272: 263-267. […]. Zufferey et al. (1997) Nat Biotechnol 15: 871-875. All vectors for the production of HIV-based lentiviral vectors were provided by D. Trono, University of Geneva, Switzerland. Jurkat T cells were incubated overnight with HIV-R7/E^−/GFP or pHR′-EF-1α/GFP viral particles at a theoretical multiplicity of infection (m.o.i.) of 0.5 in 24-well plates. […] Viral infection was monitored 36 hours later by flow cytometry analysis using a Calibur FACScan (Becton Dickinson).

[5] = system: RSV LTR; assay: RSV luciferase control in transfected HeLa cells; format: cell-based; details: 1 μM (FIG. 7C right)
Procedure: as §1

[6] = system: pHR'-EF-1α/GFP; assay: HIV-based lentiviral vector expressing GFP from EF-1α promoter in Jurkat T cells (control); format: cell-based; details: 1 μM, 36 hours (FIG. 7D right)
Procedure: as §2

[7] = target: T1, SIRT1 (Homo sapiens, UniProt Q96EB6); assay: In vitro Tat deacetylation assay with immunoprecipitated SIRT1; format: biochemical; details: AcTat, NAD+ 1 mM; nicotinamide 5 mM, TSA 400 nM; western blot (FIG. 2B)
T1 construct: made in house; host or cells: HEK 293 cells (transient transfection, anti-FLAG M2 agarose immunoprecipitation)
T1 sequence (Q96EB6 1-747): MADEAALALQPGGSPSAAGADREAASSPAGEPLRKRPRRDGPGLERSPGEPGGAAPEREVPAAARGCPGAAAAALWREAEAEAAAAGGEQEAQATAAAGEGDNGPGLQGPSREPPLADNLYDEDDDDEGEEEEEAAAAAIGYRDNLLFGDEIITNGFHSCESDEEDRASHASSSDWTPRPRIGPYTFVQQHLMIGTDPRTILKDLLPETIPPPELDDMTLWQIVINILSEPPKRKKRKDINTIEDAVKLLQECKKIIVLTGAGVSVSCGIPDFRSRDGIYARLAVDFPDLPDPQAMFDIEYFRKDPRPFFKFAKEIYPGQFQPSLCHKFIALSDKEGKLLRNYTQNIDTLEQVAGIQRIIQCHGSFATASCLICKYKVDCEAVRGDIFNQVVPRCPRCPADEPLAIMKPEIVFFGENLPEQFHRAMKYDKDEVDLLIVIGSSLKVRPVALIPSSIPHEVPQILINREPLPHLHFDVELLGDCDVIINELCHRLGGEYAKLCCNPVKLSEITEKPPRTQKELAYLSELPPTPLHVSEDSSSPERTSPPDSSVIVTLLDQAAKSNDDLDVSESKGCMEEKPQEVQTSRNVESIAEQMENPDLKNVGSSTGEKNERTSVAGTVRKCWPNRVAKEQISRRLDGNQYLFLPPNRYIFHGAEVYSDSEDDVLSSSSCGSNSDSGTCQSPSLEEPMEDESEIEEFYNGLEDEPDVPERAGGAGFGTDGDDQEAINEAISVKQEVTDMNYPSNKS
Procedure: Human SIRT1-7 FLAG-tagged plasmids were transfected in 293 cells with lipofectamine reagent (Invitrogen). Cells were lysed 24 hours after transfection with lysis buffer (50 mM Tris-Hcl, pH 7.5, 0.5 mM EDTA, 0.5% NP40, 150 mM NaCl) in the presence of protease inhibitors (Roche Molecular Biochemicals, Indianapolis, Ind.). Equal amounts of total proteins were immunoprecipitated with α-FLAG (anti-FLAG antibody) coupled to M2 agarose beads (Sigma, St Louis, Mo.), for 2 hours at 4° C. Immunoprecipitated material was washed twice with immunoprecipitation (IP) buffer and one time with SIRT deacetylation buffer (50 mM Tris-HCl pH 9, 4 mM MgCl2, 0.2 mM DTT). The beads were resuspended in 100 μl SIRT deacetylation buffer containing 1 μg synthetic Tat (72 amino acids) carrying an N-terminal biotin label and an acetyl group at position 50. Kaehlcke et al. (2003), supra. Reactions containing TSA (400 nM, WACO Bioproducts, Richmond, Va.) or nicotinamide (5 mM, Sigma) were preincubated for 10 min at room temperature. […] Reactions were stopped by the addition of SDS loading buffer, boiled, and after brief centrifugation, analyzed by western blotting with rabbit α-AcTat antibodies (Kaehlcke et al. (2003), supra) or horseradish peroxidase-conjugated streptavidin (Jackson Immunoresearch Laboratories, West Grove, Pa.). SIRT1-7 proteins were detected with polyclonal α-FLAG antibodies (Sigma).

Row | Structure (SMILES) | basal HIV promoter activity [1] | transcriptional activity of AcTat (transactivation of the HIV promoter) [1] | effect on SIRT1-mediated deacetylation of Tat [7] | also measured
1 | OC[C@H]1O[C@@H](n2cnc3cc(Cl)c(Cl)cc32)[C@H](O)[C@@H]1O [DRB, 5,6-dichlorobenzimidazole riboside] |  |  |  | transactivation by Tat and AcTat ([1]; Tat or AcTat 30 ng/μl, DRB 10 or 50 μM, four hours (FIG. 6B)): inhibited in a dose-dependent manner
2 | O=C1Oc2ccc3cc(Br)ccc3c2CC1c1ccccc1 (stereo not drawn) [HR73] |  |  |  | suppression of Tat-dependent HIV transcription [2]: 3 fold; acetylation of p53 [3]: induced hyperacetylation; reduction of HIV gene expression as measured by GFP expression [4]: 5 fold; activity of the RSV LTR [5]: did not suppress; GFP expression from the EF-1α promoter [6]: not affected
3 | CC(/C=C/C(=O)NO)=C\[C@@H](C)C(=O)c1ccc(N(C)C)cc1 [TSA] | enhanced | enhanced | had no effect | 
4 | NC(=O)c1cccnc1 [nicotinamide] | stimulating | blocked | completely inhibited | 
